The values that follow come from patent US20120035175A1, “Novel salts as Anti-Inflammatory, Immunomodulatory and Anti-Proliferatory Agents” (4SC AG, priority 2010, published 2012).

Structures are written as SMILES. Read-outs that look alike come from different tables or passages of the source.

The target in one data set is T1, recombinant murine DHODH (Mus musculus, UniProt O35435).
T1 construct: Prof; M. Löffler, Marburg, Germany (gift)
Briefly: Inhibition assay of DHODH activity (murine enzyme). Particulars: class symbols, key in nM. It is filed as biochemical. The protocol:
(§1) The standard assay mixture contained 50 μM decyclo ubichinone, 100 μM dihydroorotate, 60 μM 2,6-dichloroindophenol, as well as 20 mU DHODH. The volume activity of the recombinant enzyme used was 30 U/ml. Measurements were conducted in 50 mM TrisHCl (150 mM KCl, 0.1% Triton X-100, pH 8.0) at 30° C. in a final volume of 1 ml. The components were mixed, and the reaction was started by adding dihydroorotate. The course of reaction was followed by spectrophotometrically measuring the decrease in absorption at 600 nm for […].
(§2) Inhibitory studies were conducted in a standard assay with additional variable amounts of inhibitor. […] These investigations were carried out with recombinant human as well as with recombinant murine DHODH provided by Prof. M. Löffler, Marburg, Germany [M. Löffler, Chem. Biol. Interact.

Another data set has as its target T2, recombinant human DHODH (Homo sapiens, UniProt Q02127).
T2 construct: Prof; M. Löffler, Marburg, Germany (gift)
Briefly: Inhibition assay of DHODH activity (human enzyme). It is filed as biochemical. Here is the method:
as §1, §2

The nature of data set [1]: Dynamic vapor sorption (water uptake). It is filed as physicochemical. Particulars: for % water uptake at 85% r.h.: about 85% r.h. The source says:
DVS (SMS): Surface Measurement Systems Ltd. DVS-1 water vapour sorption analyzer. The sample is placed on a platinum sample pan and allowed to equilibrate at a given relative humidity (r.h.), usually 50% r.h. Then, a pre-defined humidity program was started with a scanning rate of 5% r.h. change per hour. First step: from 50% r.h. to 0% r.h. (in case of a possibly hydrate as starting material 50 to 95% r.h.), second step: from 0% to 95% r.h. (in case of a possibly hydrate as starting material 95 to 0% r.h.)

Data set [2] in a line: Long-term stability, 18 months storage, HPLC. In kind it is physicochemical. Here is the method: HPLC: HPLC was performed with a Dionex UltiMate® 3000 liquid chromatograph comprising a solvent Rack, a vacuum degasser, a binary pump (mikro), a static mixer (500 μl), an autosampler, a 25 μl sample loop, a 100 μl syringe, a column oven and a DAD detector (semimicro measuring cell), which was set up for UV analysis. Data analysis was done with Chromeleon® 6.80 SP3. Compounds were separated at 30° C. on a Phenomenex Onyx™ Monolithic C18 50×2 mm column. The injection volume was 2 μl and the detection wavelength was 305 nm. As mobile phase, a gradient of 0.1% formic acid in HPLC grade water/acetonitrile was used, starting at a concentration of 5% acetonitrile. The starting concentration was held for 1 minute, then the gradient was ramped linearly to 95% acetonitrile over the course of 2 min, held for 0.7 min at 95% acetonitrile, after which it was returned to 5% acetonitrile within 0.1 min and kept constant for 0.7 min to re-equilibrate the column. The mobile phase flow rate was 1.5 ml/min.
The compounds were stored for 18 months at ambient conditions (20-25° C., 30-60% relative humidity) and subsequently analysed by HPLC for purity.

T1 sequence (O35435 whole entry): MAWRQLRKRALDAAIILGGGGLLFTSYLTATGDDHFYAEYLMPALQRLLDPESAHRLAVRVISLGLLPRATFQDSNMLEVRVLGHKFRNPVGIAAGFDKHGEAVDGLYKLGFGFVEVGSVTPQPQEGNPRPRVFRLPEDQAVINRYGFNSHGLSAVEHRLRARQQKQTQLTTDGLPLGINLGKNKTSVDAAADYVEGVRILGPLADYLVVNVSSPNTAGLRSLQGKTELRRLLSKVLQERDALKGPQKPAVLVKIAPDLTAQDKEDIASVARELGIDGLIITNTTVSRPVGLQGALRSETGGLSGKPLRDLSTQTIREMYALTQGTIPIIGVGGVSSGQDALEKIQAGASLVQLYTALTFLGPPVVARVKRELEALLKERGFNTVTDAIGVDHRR
T2 sequence (Q02127 whole entry): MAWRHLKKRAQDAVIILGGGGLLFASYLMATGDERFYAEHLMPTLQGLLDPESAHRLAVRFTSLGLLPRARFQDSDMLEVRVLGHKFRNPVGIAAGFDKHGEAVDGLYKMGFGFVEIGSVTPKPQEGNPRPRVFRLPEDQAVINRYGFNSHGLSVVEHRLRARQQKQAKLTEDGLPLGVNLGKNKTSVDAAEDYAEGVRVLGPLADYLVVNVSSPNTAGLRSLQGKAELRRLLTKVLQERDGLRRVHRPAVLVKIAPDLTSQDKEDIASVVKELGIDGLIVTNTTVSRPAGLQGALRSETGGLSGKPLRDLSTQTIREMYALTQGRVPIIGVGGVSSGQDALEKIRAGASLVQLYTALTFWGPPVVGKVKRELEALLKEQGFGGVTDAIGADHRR

On to `O=C(O)C1=C(C(=O)Nc2ccc(-c3cccc(F)c3)cc2F)CCC1` [Compound 27, 2-((3,3′-difluoro-[1,1′-biphenyl]-4-yl)carbamoyl)cyclopent-1-enecarboxylic acid], for which the IC50 on recombinant murine DHODH is above 1500 nM.

On to `O=C(O)C1=C(C(=O)Nc2c(F)cc(-c3ccccc3F)cc2F)CCC1` [Compound 66, 2-((2′,3,5-trifluoro-[1,1′-biphenyl]-4-yl)carbamoyl)cyclopent-1-enecarboxylic acid], for which, on recombinant murine DHODH, the IC50 was in the range of 800 to 1500 nM.

With `O=C(O)C1=C(C(=O)Nc2ccc(OCc3c(F)cccc3Cl)c(Cl)c2)CCC1` [Compound 69, 2-((3-chloro-4-((2-chloro-6-fluorobenzyl)oxy)phenyl)carbamoyl)cyclopent-1-enecarboxylic acid], the IC50 at recombinant murine DHODH and on recombinant human DHODH was below 800 nM in each case.

In the case of `COc1ccccc1-c1ccc(NC(=O)C2=C(C(=O)O)CCC2)c(C)c1` [Compound 57, 2-((2′-methoxy-3-methyl-[1,1′-biphenyl]-4-yl)carbamoyl)cyclopent-1-enecarboxylic acid], the IC50 at recombinant murine DHODH lay in the range of 800 to 1500 nM.

Take `O=C(O)C1=C(C(=O)Nc2ccc(OCc3ccccc3F)c(Cl)c2)CCC1` [Compound 74, 2-((3-chloro-4-((2-fluorobenzyl)oxy)phenyl)carbamoyl)cyclopent-1-enecarboxylic acid]: at recombinant murine DHODH, the IC50 was below 800 nM.

With `COc1ccc(-c2ccc(NC(=O)C3=C(C(=O)O)CCC3)cc2Cl)cc1` [Compound 19, 2-((2-chloro-4′-methoxy-[1,1′-biphenyl]-4-yl)carbamoyl)cyclopent-1-enecarboxylic acid], the half-maximal inhibitory concentration (IC50) at recombinant murine DHODH is below 800 nM.

`CCNCC.COc1cccc(-c2ccc(NC(=O)C3=C(C(=O)O)CCC3)c(F)c2)c1` [Diethylamine (DEA) salt]: in data set [1], the “% water uptake at 95% r.h.” value is on record as 0.5% and the “% water uptake at 85% r.h.” value turned out to be 0.2%. In data set [2] (HPLC after 18 months storage at ambient conditions (20-25° C., 30-60% relative humidity)), this compound had a Peak area above 99%. Further, the “Occurrence of hydrolysis product in HPLC after 18 months storage” value in data set [2] (ambient conditions (20-25° C., 30-60% relative humidity), LOD for hydrolysis product: 0.1 μg/ml) is “Below LOD*”.

Consider `O=C(O)C1=C(C(=O)Nc2ccc(OCc3ccccc3C(F)(F)F)c(Cl)c2)CCC1` [Compound 68, 2-((3-chloro-4-((2-(trifluoromethyl)benzyl)oxy)phenyl)carbamoyl)cyclopent-1-enecarboxylic acid], for which the IC50 on recombinant murine DHODH is above 1500 nM.

As to `O=C(O)C1=C(C(=O)Nc2cc(Br)c(OCc3cc(F)ccc3F)c(Br)c2)CCC1` [Compound 24, 2-((3,5-dibromo-4-((2,5-difluorobenzyl)oxy)phenyl)carbamoyl)cyclopent-1-enecarboxylic acid], the IC50 on recombinant murine DHODH was 800 to 1500 nM.

Consider `O=C(O)C1=C(C(=O)Nc2ccc(-c3ccccc3F)cc2)CCC1` [Compound 13, 2-((2′-fluoro-[1,1′-biphenyl]-4-yl)carbamoyl)cyclopent-1-enecarboxylic acid], for which the IC50 on recombinant murine DHODH is above 1500 nM.

As for `COc1ccccc1-c1c(F)c(F)c(NC(=O)C2=C(C(=O)O)CCC2)c(F)c1F` [Compound 56, 2-((2,3,5,6-tetrafluoro-2′-methoxy-[1,1′-biphenyl]-4-yl)carbamoyl)cyclopent-1-enecarboxylic acid], the IC50 at recombinant murine DHODH was below 800 nM.

`O=C(O)C1=C(C(=O)Nc2ccc(Oc3ccccc3)cc2)CCC1` [Compound 50, 2-((4-phenoxyphenyl)carbamoyl)cyclopent-1-enecarboxylic acid]: on recombinant murine DHODH, the IC50 was below 800 nM.

Turning to `COc1ccccc1-c1ccc(NC(=O)C2=C(C(=O)O)CCC2)c(Cl)c1` [Compound 53, 2-((3-chloro-2′-methoxy-[1,1′-biphenyl]-4-yl)carbamoyl)cyclopent-1-enecarboxylic acid], the IC50 on recombinant murine DHODH is 800 to 1500 nM.

In the case of `O=C(O)C1=C(C(=O)Nc2ccc(OCc3ccccc3)c(Cl)c2)CCC1` [Compound 72, 2-((4-(benzyloxy)-3-chlorophenyl)carbamoyl)cyclopent-1-enecarboxylic acid], on recombinant murine DHODH, the IC50 lay in the range of 800 to 1500 nM.

On to `COc1ccccc1-c1ccc(NC(=O)C2=C(C(=O)O)CCC2)cc1Cl` [Compound 54, 2-((2-chloro-2′-methoxy-[1,1′-biphenyl]-4-yl)carbamoyl)cyclopent-1-enecarboxylic acid], for which, at recombinant murine DHODH, the IC50 was in the range of 800 to 1500 nM.

In the case of `O=C(O)C1=C(C(=O)Nc2ccc(-c3ccccc3Cl)cc2)CSC1` [Compound 41, 4-((2′-chloro-[1,1′-biphenyl]-4-yl)carbamoyl)-2,5-dihydrothiophene-3-carboxylic acid], the 50% inhibitory concentration (IC50) at recombinant murine DHODH is above 1500 nM.

For the compound `COc1cccc(-c2ccc(NC(=O)C3=C(C(=O)[O-])CCC3)c(F)c2)c1.[K+]` [K salt], in data set [1], the “% water uptake at 95% r.h.” value is “Ca. 1%” and the “% water uptake at 85% r.h.” value was “Ca. 0.5%”.

`O=C(O)C1=C(C(=O)Nc2ccc(-c3ccccc3Cl)cc2)CCC1` [Compound 14, 2-((2′-chloro-[1,1′-biphenyl]-4-yl)carbamoyl)cyclopent-1-enecarboxylic acid]: on recombinant murine DHODH, the IC50 is above 1500 nM.

For `O=C(O)C1=C(C(=O)Nc2cc(Br)c(OCc3ccccc3)c(Br)c2)CSC1` [Compound 29, 4-((4-(benzyloxy)-3,5-dibromophenyl)carbamoyl)-2,5-dihydrothiophene-3-carboxylic acid], the IC50 at recombinant murine DHODH is above 1500 nM.

Consider `Cc1cccc(Sc2ccc(NC(=O)C3=C(C(=O)O)CCC3)cc2)c1` [Compound 42, 2-((4-(m-tolylthio)phenyl)carbamoyl)cyclopent-1-enecarboxylic acid], for which, at recombinant murine DHODH, the concentration for half-maximal inhibition (IC50) is below 800 nM.

As to `O=C(O)C1=C(C(=O)Nc2cc(Br)c(OCc3ccc(F)c(F)c3)c(Br)c2)CCC1` [Compound 25, 2-((3,5-dibromo-4-((3,4-difluorobenzyl)oxy)phenyl)carbamoyl)cyclopent-1-enecarboxylic acid], at recombinant human DHODH (recombinant human DHODH, class symbols, key in nM, read-out: human IC50-Value), the IC50 is below 800 nM.

For `CCOc1cccc(-c2cc(F)c(NC(=O)C3=C(C(=O)O)CCC3)c(F)c2)c1` [Compound 63, 2-((3′-ethoxy-3,5-difluoro-[1,1′-biphenyl]-4-yl)carbamoyl)cyclopent-1-enecarboxylic acid], the IC50 on recombinant murine DHODH lay in the range of 800 to 1500 nM.

Regarding `COc1ccc(-c2cc(F)c(NC(=O)C3=C(C(=O)O)CCC3)c(F)c2)c(OC)c1` [Compound 67, 2-((3,5-difluoro-2′,4′-dimethoxy-[1,1′-biphenyl]-4-yl)carbamoyl)cyclopent-1-enecarboxylic acid], the half-maximal inhibitory concentration (IC50) on recombinant murine DHODH was above 1500 nM.

For `COc1ccccc1-c1cc(Cl)c(NC(=O)C2=C(C(=O)O)CCC2)c(Cl)c1` [Compound 58, 2-((3,5-dichloro-2′-methoxy-[1,1′-biphenyl]-4-yl)carbamoyl)cyclopent-1-enecarboxylic acid], the IC50 on recombinant murine DHODH is 800 to 1500 nM.

Consider `CCOc1ccccc1-c1cc(F)c(NC(=O)C2=C(C(=O)O)CCC2)c(F)c1` [Compound 62, 2-((2′-ethoxy-3,5-difluoro-[1,1′-biphenyl]-4-yl)carbamoyl)cyclopent-1-enecarboxylic acid], for which the IC50 on recombinant murine DHODH fell in the range of 800 to 1500 nM.

Take `COc1cccc(-c2ccc(NC(=O)C3=C(C(=O)[O-])CCC3)c(F)c2)c1.[Na+]` [Na salt]: in data set [1], the “% water uptake at 95% r.h.” value was “Ca. 7.5%” and the “% water uptake at 85% r.h.” value is “Ca. 5%”.

Consider `CCOc1cccc(-c2ccc(NC(=O)C3=C(C(=O)O)CCC3)c(F)c2)c1` [Compound 46, 2-((3′-ethoxy-3-fluoro-[1,1′-biphenyl]-4-yl)carbamoyl)cyclopent-1-enecarboxylic acid], for which the IC50 at recombinant murine DHODH was above 1500 nM.

Take `COc1cccc(-c2ccc(NC(=O)C3=C(C(=O)O)CCC3)c(F)c2)c1.N=C(N)NCCCC(N)C(=O)O` [L-Arginine salt]: in data set [1], the “% water uptake at 95% r.h.” value is above 12% and the “% water uptake at 85% r.h.” value stood at 1.7%. The “% water uptake at 95% r.h.” value in data set [1] (listed as arginine salt) is given as above 12%.

With `COc1cccc(-c2ccc(NC(=O)C3=C(C(=O)[O-])CCC3)c(F)c2)c1.COc1cccc(-c2ccc(NC(=O)C3=C(C(=O)[O-])CCC3)c(F)c2)c1.[Mg+2]` [Mg salt], in data set [1], the “% water uptake at 95% r.h.” value was “Ca. 10%” and the “% water uptake at 85% r.h.” value was “Ca. 5%”.

Broadly, the IC50 is the midpoint of a concentration-inhibition curve.
